From patent US6603023B2 (priority 1996, dated 2003)
Read-outs that look alike come from different tables or passages of the source. Marks after values point to notes of the source that are not given here.

Assays:
DC-3F/ADX = experiment: cells; format: cell-based, hamster
Summary of the method: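 Cell protein content measured by sulforhodamine B staining after trichloroacetic acid fixation, read at 570 nm; duplicate runs of six to seven concentrations fitted by median-effect analysis. Lines are actinomycin D-resistant DC-3F hamster lung sublines (ADII, ADX), kept under selecting drug in RPMI 1640-10% FBS.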

[1] = test system: human neuroblastoma SK-N-As; experiment: SRB cytotoxicity, SK-N-As; format: cell-based; details: Table 1C; SRB, 72 h; read-out: IC50
Description: (§1) The DC-3F hamster lung fibroblast cell line and its actinomycin D-selected sublines (DC-3F/ADII and DC-3F/ADX) were obtained from the Memorial Sloan-Kettering Cancer Center (MSKCC).
(§2) The drug-resistant cell lines were continuously cultured in the presence of the selecting agent, AD, DX, VBL or VM to maintain the drug resistant phenotypes. […] All cells were cultured in RPMI 1640-10% FBS at 37° C. 5% CO2 (see below).
(§3) The cytotoxicity of the drug toward the monolayer cell cultures (such as DC-3F, MCF-7, SK-N-As and sublines) was determined in 96-well microtiter plates by the SRB method as described by Skehan and co-workers (Skehan, P., et al., J. Natl. Cancer Inst. 1990, 82, 1107-1112) for measuring the cellular protein content. Cultures were fixed with trichloroacetic acid and then stained for 30 min with 0.4% suforhodamine B dissolved in 1% acetic acid. Unbound dye was removed by acetic acid washes, and the protein-bound dye was extracted with an unbuffered Tris base (tris(hydroxy-methyl)aminomethane) for determination of absorbance at 570 nm in a 96-well microtiter plate reader. The experiments were carried out in duplicate. Each run entailed six to seven concentrations of the tested drugs. Data were analyzed with the median-effect plot (Chou, T.-C. & Talalay, P. T. (1984) Adv. Enzyme Regul. 22, 27-55) using a previously described computer program (Chou, J., & Chou T.-C. 1987, Dose-effect analysis with microcomputers: Quantitation of ED50, synergism, antagonism, low-dose risk, reception-ligand binding and enzyme kinetics, IBM-PC software and manual, Biosoft, Cambridge, U.K.).

murine leukemic P388/0 = experiment: XTT cytotoxicity, P388/0; format: cell-based; details: Table 1C; XTT, 72 h; read-out: IC50
Description: as §1, §2
The cells were cultured at an initial density of 5×10^4 cells/mL. They were maintained in a 5% CO2-humidified atmosphere at 37° C. in RPMI-1640 medium (GIBCO-BRL, Gaithersburg, Md.) containing penicillin (100 U/mL), streptomycin ([…]) (GIBCO-BRL) and 10% heat inactivate fetal bovine serum. Culture for cell suspension (such as for CCRF-CEM, P388 and sublines), were performed by the XTT-microculture tetrazonium method (Scudiero, D. A. et al., Cancer Res. 1988, 48, 4827-4833) in duplicate in 96-well microtiter plates.
2′,3′-Bis(methoxy-4-nitro-5-sufophenyl)-5-[(phenylamino)carbonyl]2H-tetrazolium hyudroxide (XTT) was prepared at 1 mg/mL in prewarmed (37° C.) medium without serum. Phenazine methosulfate (PMS) and fresh XTT were mixed together to obtain 0.025 mM PMS-XTT solution (25 μL of the stock 5 mM PMS was added per 5 mL of 1 mg/mL XTT). Following a 72 h incubation, 50 μL of the assay aliquots were added to each well of the cell culture. After incubation at 37° C. for 4 h, absorbance at 450 nm and 630 nm was measured with a microplate reader (EL340, Bio-Tek Instruments, Inc., Winooski, Vt.).

MCF-7 = experiment: SRB cytotoxicity, MCF-7; format: cell-based, human; details: Table 1C; SRB, 72 h; read-out: IC50
Description: as §3

[2] = test system: human mammary carcinoma MX-1 xenograft
Description: DMSO was used as a vehicle for epothilones. Each mouse received ≦40 μL DMSO in all experiments.
Athymic nude mice (nu/nu) were used for MX-1 and MCF-7/Adr human mammary carcinoma xenografts. Mice were obtained from Taconic Laboratory Animals and Service (Germantown, N.Y.: outbred, Swiss background).

[3] = 15 mg/kg i.p. Q2Dx5 from day 7, day 11
[4] = 15 mg/kg i.p. Q2Dx5 from day 7, day 13
[5] = 15 mg/kg i.p. Q2Dx5 from day 7, day 15
[6] = 15 mg/kg i.p. Q2Dx5 from day 7, day 17
[7] = 25 mg/kg i.p. Q2Dx5 from day 7, day 11
[8] = 25 mg/kg i.p. Q2Dx5 from day 7, day 13
[9] = 25 mg/kg i.p. Q2Dx5 from day 7, day 15
[10] = 25 mg/kg i.p. Q2Dx5 from day 7, day 17
[11] = 35 mg/kg i.p. Q2Dx5 from day 9, day 13
[12] = 35 mg/kg i.p. Q2Dx5 from day 9, day 15
[13] = 35 mg/kg i.p. Q2Dx5 from day 9, day 17
[14] = 35 mg/kg i.p. Q2Dx5 from day 9, day 19
[15] = 35 mg/kg i.p. d8,10,12,14,16, day 10
[16] = 35 mg/kg i.p. d8,10,12,14,16, day 12
[17] = 35 mg/kg i.p. d8,10,12,14,16, day 14
[18] = 35 mg/kg i.p. d8,10,12,14,16, day 16
[19] = 35 mg/kg i.p. d8,10,12,14,16, day 18

C/C1=C/C[C@@H](/C(C)=C/c2csc(C)n2)OC(=O)C[C@H](O)C(C)(C)C(=O)[C@H](C)[C@@H](O)[C@@H](C)CCC1 [Desoxyepothilone B, desoxyepothilone B]
fold resistance vs parent DC-3F (DC-3F/ADX; DC-3F/ADX cells): 0.9 fold | folds of resistance (IC50 ratio vs parent cell line) (DC-3F/ADX; Table 1C, DC-3F/ADX vs DC-3F): (0.9x) | IC50 (DC-3F/ADX; Table 1C, SRB, 72 h, read-out: IC50): 0.91 nM | IC50 [1]: 21 nM | IC50 (murine leukemic P388/0): 6.8 nM | IC50 (MCF-7): 2.9 nM | Toxicity Death ([2]; 15 mg/kg i.p. Q2Dx5 from day 7): 0/6 | Average Body Weight Change [2, 3]: +0.8 g | Average Tumor Size (T/C) [2, 3]: 0.65 | Average Body Weight Change [2, 4]: +1.1 g | Average Tumor Size (T/C) [2, 4]: 0.46 | Average Body Weight Change [2, 5]: +1.6 g | Average Tumor Size (T/C) [2, 5]: 0.49** | Average Body Weight Change [2, 6]: +1.5 g | Average Tumor Size (T/C) [2, 6]: 0.41** | Toxicity Death ([2]; 25 mg/kg i.p. Q2Dx5 from day 7): 0/6 | Average Body Weight Change [2, 7]: +0.4 g | Average Tumor Size (T/C) [2, 7]: 0.38* | Average Body Weight Change [2, 8]: +0.7 g | Average Tumor Size (T/C) [2, 8]: 0.11** | Average Body Weight Change [2, 9]: +1.0 g | Average Tumor Size (T/C) [2, 9]: 0.05*** | Average Body Weight Change [2, 10]: +0.7 g | Average Tumor Size (T/C) [2, 10]: 0.04**** | mice tumor-free (no detectable tumor) on day 35 ([2]; 25 mg/kg i.p. days 7-15): one out of six | average tumor volume reduction ([2]; 25 mg/kg i.p. days 7-15, day 17): ≤ 96% | mice tumor-free (no detectable tumor) on day 35 ([2]; 25 mg/kg i.p. days 7-15, listed as dEpo B): #One out of six mice with no detectable tumor on day 35; | mice with no detectable tumor on day 16 ([2]; 35 mg/kg Q2Dx5 i.p. from day 8): two out of ten | mice with no detectable tumor on day 26 ([2]; 35 mg/kg d8-16 then 40 mg/kg Q2Dx5 from day 18): five out of ten | mice remaining tumor-free on day 60 ([2]; 35 mg/kg d8-16 then 40 mg/kg Q2Dx5 from day 18, of ten): three | mice tumor-free up to day 80 ([2]; 35 mg/kg d8-16 then 40 mg/kg d18-26 i.p.): 3/10 | mice with markedly suppressed tumors ([2]; 35 mg/kg d8-16 then 40 mg/kg d18-26 i.p., sacrificed day 50): 7/10 | lethality ([2]; 35 mg/kg i.p. Q2Dx5 from day 8): 0/10 | mice survived ([2]; 35 mg/kg i.p. Q2Dx5 from day 8): 10/10 | mice with tumor non-detectable on day 18 ([2]; 35 mg/kg i.p. Q2Dx5 from day 8): 3 out of 10 | tumor volume reduction ([2]; 35 mg/kg i.p. Q2Dx5 from day 8): 98% | Toxicity Death ([2]; 35 mg/kg i.p. Q2Dx5 from day 9): 0/6 | Tumor Disapp. ([2]; 35 mg/kg i.p. Q2Dx5 from day 9): 3/6 | Average Body Weight Change [2, 11]: -1.7 g | Average Tumor Size (T/C) [2, 11]: 0.35 | Average Body Weight Change [2, 12]: -2.1 g | Average Tumor Size (T/C) [2, 12]: 0.14 | Average Body Weight Change [2, 13]: -2.1 g | Average Tumor Size (T/C) [2, 13]: 0.04 | Average Body Weight Change [2, 14]: -2.4 g | Average Tumor Size (T/C) [2, 14]: 0.02 | # Mice Died ([2]; 35 mg/kg i.p. d8,10,12,14,16): 3/10 | Tumor Disappearance ([2]; 35 mg/kg i.p. d8,10,12,14,16): 0/10 | Average Body Weight Change [2, 15]: -0.1 g | Average Tumor Volume (T/C) [2, 15]: 0.42 | Average Body Weight Change [2, 16]: +0.7 g | Average Tumor Volume (T/C) [2, 16]: 0.28 | Average Body Weight Change [2, 17]: -0.3 g | Average Tumor Volume (T/C) [2, 17]: 0.07 | Average Body Weight Change [2, 18]: -1.7 g | Average Tumor Volume (T/C) [2, 18]: 0.04 | Average Body Weight Change [2, 19]: -1.6 g | Average Tumor Volume (T/C) [2, 19]: 0.02 | # Died ([2]; 40 mg/kg i.p. d18-26, extended after d8-16): 0/10 | Average Tumor Disappearance Duration (Day) ([2]; 40 mg/kg i.p. d18-26, extended after d8-16, (5/10)): 44(5/10) Day | Average Body Weight Change ([2]; 40 mg/kg i.p. d18-26, extended after d8-16, day 20): -1.7 g
